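Test compounds were applied to cells in 96-well plates for 48 hours at 5 doses. TGI is the concentration that stops growth completely.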
What was measured:
Experiment in all cases: inhibition of tumour cell growth, NCI panel, 48 h
OVCAR-8 ovarian = system: OVCAR-8 ovarian
MDA-MB-435 = system: MDA-MB-435
HS 578T breast = system: HS 578T breast
MCF7 breast = system: MCF7 breast
SNB-19 CNS = system: SNB-19 CNS
OVCAR-5 ovarian = system: OVCAR-5 ovarian
A549 NSCLC = system: A549 NSCLC
NCI-H522 lung = system: NCI-H522 lung
SF-295 CNS = system: SF-295 CNS
SK-OV-3 ovarian = system: SK-OV-3 ovarian
SK-MEL-5 melanoma = system: SK-MEL-5 melanoma
MALME-3M melanoma = system: MALME-3M melanoma
PC-3 prostate = system: PC-3 prostate
NCI/ADR-RES ovarian = system: NCI/ADR-RES ovarian
CCRF-CEM leukemia = system: CCRF-CEM leukemia

SMILES	TGI (OVCAR-8 ovarian)	TGI (MDA-MB-435)	TGI (HS 578T breast)	TGI (MCF7 breast)	TGI (SNB-19 CNS)	TGI (OVCAR-5 ovarian)	TGI (A549 NSCLC)	TGI (NCI-H522 lung)	TGI (SF-295 CNS)	TGI (SK-OV-3 ovarian)	TGI (SK-MEL-5 melanoma)	TGI (MALME-3M melanoma)	TGI (PC-3 prostate)	TGI (NCI/ADR-RES ovarian)	TGI (CCRF-CEM leukemia)
CC(=O)O[C@H]1C(=O)[C@@]2(C)[C@H]([C@H](OC(=O)c3ccccc3)[C@]3(O)C[C@H](OC(=O)[C@H](O)[C@@H](NC(=O)c4ccccc4)c4cccc(N(C)C)c4)C(C)=C1C3(C)C)[C@]1(OC(C)=O)CO[C@@H]1C[C@@H]2O	> 27.4 µM	0.0388 µM	0.603 µM	> 55.2 µM	> 41.9 µM	> 15.8 µM	> 75 µM	3.69 µM	1.14 µM	> 28.6 µM	11.3 µM	> 67.1 µM	12.4 µM	> 62.5 µM	–
C#CC1(O)CCC2[C@@H]3CCc4cc(Oc5nc(F)nc(-c6c7ccccc7c(SCC)n6CCC)n5)ccc4C3CC[C@@]21C (some centres undefined)	> 100 µM	–	–	–	–	> 100 µM	> 100 µM	–	> 100 µM	> 100 µM	> 100 µM	> 100 µM	–	–	> 100 µM
O=C(C/C(=N/O)C(F)(F)F)c1cccs1	> 100 µM	> 100 µM	> 100 µM	> 100 µM	> 100 µM	> 100 µM	> 100 µM	–	> 100 µM	> 100 µM	> 100 µM	–	> 100 µM	> 100 µM	> 100 µM
COC(=O)C1=C(C(=O)OC)C(N(C)C)C(C(=O)OC)=C(C(=O)OC)S1	> 100 µM	> 100 µM	> 100 µM	> 100 µM	> 100 µM	> 100 µM	> 100 µM	–	> 100 µM	> 100 µM	–	–	> 100 µM	> 100 µM	–
C=CC(=O)N1C/C(=C\c2ccc([N+](=O)[O-])cc2)C(=O)/C(=C/c2ccc([N+](=O)[O-])cc2)C1	0.727 µM	1.36 µM	0.804 µM	1.21 µM	3.08 µM	1.18 µM	1.72 µM	–	0.603 µM	2.85 µM	2.54 µM	0.643 µM	0.361 µM	4.12 µM	–
CC(=O)O[C@H]1C[C@@H](OC(C)=O)[C@@](C)(O)[C@@H]2[C@@H](OC(C)=O)[C@@]3(O)[C@H](/C=C(/CO)[C@H]4O[C@H]4[C@@H](OC(C)=O)[C@@]12C)OC(=O)[C@@H]3C	> 25 µM	> 25 µM	> 25 µM	–	> 25 µM	> 25 µM	> 25 µM	15.6 µM	16.8 µM	> 25 µM	> 25 µM	> 25 µM	> 25 µM	> 25 µM	> 25 µM
C=CCN1/C(=C2\SC(=S)N(c3ccc(C)cc3)C2=O)Sc2c1ncn(C)c2=O	> 100 µM	–	–	–	> 100 µM	> 100 µM	> 100 µM	> 100 µM	> 100 µM	> 100 µM	> 100 µM	–	–	–	> 100 µM
COC(=O)C1=C(O)CCCC(C2CCCCC(=O)C2C(=O)OC)=C1 (centres undefined)	> 100 µM	> 100 µM	–	70.4 µM	> 100 µM	> 100 µM	> 100 µM	–	> 100 µM	> 100 µM	> 100 µM	–	> 100 µM	> 100 µM	89.3 µM
COc1ccc2c(c1)NC1(CCN(CCCC(=O)c3ccc(F)cc3)CC1)N=N2	–	31.4 µM	–	40.5 µM	> 100 µM	61.1 µM	> 100 µM	33.9 µM	46.3 µM	> 100 µM	25.3 µM	30.6 µM	> 100 µM	> 100 µM	58.5 µM
Cc1c(Cl)cccc1N=NC(=O)NNc1cccc(Cl)c1C	26.6 µM	34.5 µM	–	–	41.9 µM	27.1 µM	45.2 µM	39.8 µM	–	–	28.6 µM	30.8 µM	26.1 µM	–	42.6 µM
C#C[C@@]1(O)CCCC2=CC3(CC[C@]21C)SCCS3	> 100 µM	> 100 µM	> 100 µM	> 100 µM	> 100 µM	> 100 µM	> 100 µM	> 100 µM	> 100 µM	> 100 µM	> 100 µM	> 100 µM	> 100 µM	> 100 µM	–
O=C(CN1CCCCC1)Nc1ccc2c(c1)C1Oc3ccccc3CC1CO2 (centres undefined)	> 100 µM	38.4 µM	–	44.1 µM	–	38.2 µM	> 100 µM	36.3 µM	36.4 µM	81.9 µM	26.7 µM	32.2 µM	35 µM	88.3 µM	> 100 µM
CC(=O)C(C(C)=O)[C@@H]1OC(C)(C)O[C@@H]1[C@H]1COC(C)(C)O1	> 100 µM	> 100 µM	> 100 µM	> 100 µM	> 100 µM	> 100 µM	> 100 µM	81.2 µM	> 100 µM	–	> 100 µM	52.4 µM	> 100 µM	> 100 µM	–
CCOC(=O)C(=CNC(=S)N=Nc1c(O)[nH]c2ccccc12)C(=O)OCC	> 100 µM	> 100 µM	> 100 µM	> 100 µM	> 100 µM	> 100 µM	> 100 µM	–	> 100 µM	> 100 µM	> 100 µM	–	> 100 µM	> 100 µM	> 100 µM
c1ccc(SC23C4C5C6C4C2C6C53)nc1 (centres undefined)	> 100 µM	–	–	–	> 100 µM	> 100 µM	> 100 µM	> 100 µM	> 100 µM	> 100 µM	> 100 µM	> 100 µM	–	–	> 100 µM
O=[N+]([O-])/C=C(\CS(=O)(=O)c1ccccc1)c1ccc2c(c1)OCO2	> 100 µM	76.6 µM	> 100 µM	> 100 µM	–	95.1 µM	> 100 µM	> 100 µM	> 100 µM	> 100 µM	> 100 µM	–	–	49.2 µM	> 100 µM
COc1ccc(-c2ncn(C[Si](C)(C)C)c2-c2ccc(OC)cc2)cc1	31.4 µM	13 µM	37.1 µM	31.1 µM	26.2 µM	18.3 µM	27.2 µM	16.2 µM	18.3 µM	36.9 µM	10.2 µM	23.7 µM	16.9 µM	29.1 µM	–
Cc1ccc(-c2cc[n+]3c(n2)oc2ccccc23)cc1	41.2 µM	57.6 µM	81.5 µM	> 100 µM	> 100 µM	> 100 µM	> 100 µM	20 µM	> 100 µM	> 100 µM	–	29.1 µM	–	> 100 µM	36.3 µM

SMILES	TGI (OVCAR-8 ovarian)	TGI (MDA-MB-435)	TGI (HS 578T breast)	TGI (MCF7 breast)	TGI (SNB-19 CNS)	TGI (OVCAR-5 ovarian)	TGI (A549 NSCLC)	TGI (NCI-H522 lung)	TGI (SF-295 CNS)	TGI (SK-OV-3 ovarian)	TGI (SK-MEL-5 melanoma)	TGI (MALME-3M melanoma)	TGI (PC-3 prostate)	TGI (NCI/ADR-RES ovarian)	TGI (CCRF-CEM leukemia)
Cc1cc2n[n+]3[n-]cc(-c4ccccc4)n3c2cc1[N+](=O)[O-]	–	> 100 µM	> 100 µM	> 100 µM	> 100 µM	> 100 µM	> 100 µM	> 100 µM	> 100 µM	> 100 µM	> 100 µM	–	> 100 µM	–	> 100 µM
OC12c3ccccc3C1CCCCCCCCCC21OCCO1 (centres undefined)	> 100 µM	–	–	–	> 100 µM	> 100 µM	> 100 µM	> 100 µM	> 100 µM	> 100 µM	> 100 µM	> 100 µM	–	–	> 100 µM
CCN(CC)CC1CN=C(N)O1 (centres undefined)	> 100 µM	> 100 µM	–	> 100 µM	> 100 µM	> 100 µM	> 100 µM	–	> 100 µM	–	> 100 µM	–	> 100 µM	> 100 µM	> 100 µM
CC1SC2(CCCCC2)N(NC(=O)CSc2nc3ccc(Cl)cc3c(=O)n2-c2ccccc2)C1=O (centres undefined)	59.1 µM	54.7 µM	–	32.2 µM	66.9 µM	58.4 µM	> 100 µM	34.1 µM	36.8 µM	> 100 µM	27.9 µM	60.6 µM	56.1 µM	50.2 µM	> 100 µM
CCCCCCCCCCCCCCCCCCNC(=S)/N=C/c1c(O)c2ccccc2[nH]c1=O	29.6 µM	42.3 µM	–	48.3 µM	36.3 µM	31.2 µM	47.6 µM	–	47.9 µM	49.1 µM	70.7 µM	–	–	35.1 µM	–
COC(=O)C1CCC(=O)N1C(c1cc(OC)c(OC)c(OC)c1)c1cccc2ccccc12 (centres undefined)	> 100 µM	> 100 µM	> 100 µM	> 100 µM	> 100 µM	> 100 µM	> 100 µM	> 100 µM	> 100 µM	> 100 µM	–	–	> 100 µM	> 100 µM	–
CCn1c2c(c3ccccc31)[C@@H](c1ccc(Cl)cc1)CC1C(=O)N(c3ccccc3)C(=O)C21 (some centres undefined)	> 100 µM	–	–	–	> 100 µM	> 100 µM	> 100 µM	> 100 µM	> 100 µM	> 100 µM	> 100 µM	> 100 µM	–	–	> 100 µM
CCOC(=O)CCN1C(=O)C(=O)N(c2ccc(OC)cc2)C1=S	> 100 µM	> 100 µM	> 100 µM	–	> 100 µM	> 100 µM	> 100 µM	> 100 µM	> 100 µM	> 100 µM	> 100 µM	> 100 µM	> 100 µM	> 100 µM	> 100 µM
COc1cc(C2C3=C(CCCC3=O)N(c3ccc(C)cc3)C3=C2C(=O)CCC3)c([N+](=O)[O-])cc1OC	–	–	> 100 µM	> 100 µM	> 100 µM	> 100 µM	> 100 µM	–	–	> 100 µM	> 100 µM	–	> 100 µM	> 100 µM	> 100 µM
Cc1ccc(S(=O)(=O)N/N=C2\CC3CC4CCC2C4C3)cc1 (centres undefined)	> 100 µM	> 100 µM	> 100 µM	> 100 µM	–	> 100 µM	> 100 µM	> 100 µM	> 100 µM	> 100 µM	> 100 µM	> 100 µM	> 100 µM	–	> 100 µM
CN(C)CCNC(=O)c1cccc2nc3c(C(=O)NCCN(C)C)cccc3nc12	4.67 µM	2.59 µM	7.73 µM	–	21.6 µM	13.6 µM	6.01 µM	1.81 µM	6.46 µM	–	3.02 µM	3.59 µM	2.67 µM	> 58.1 µM	12.7 µM
NCCCNOCCCN	> 100 µM	> 100 µM	–	> 100 µM	> 100 µM	> 100 µM	> 100 µM	> 100 µM	> 100 µM	> 100 µM	> 100 µM	> 100 µM	> 100 µM	> 100 µM	–
CCOC(=O)C(Cc1ccccc1)NC(=O)c1[nH]cnc1/N=N/N(C)C (centres undefined)	> 100 µM	–	–	–	> 100 µM	> 100 µM	> 100 µM	> 100 µM	> 100 µM	> 100 µM	> 100 µM	> 100 µM	–	–	> 100 µM
O=c1[nH]nc(Nc2ccccc2)c2nnn(C3CCCCC3)c12	> 100 µM	> 100 µM	–	> 100 µM	> 100 µM	> 100 µM	> 100 µM	–	> 100 µM	–	> 100 µM	> 100 µM	> 100 µM	> 100 µM	> 100 µM
Cc1ccc(S(=O)(=O)C2=c3nc4ccccc4cc3=C3C(=O)c4ccccc4C(=O)C32)cc1 (centres undefined)	> 100 µM	–	–	–	> 100 µM	> 100 µM	> 100 µM	> 100 µM	–	> 100 µM	> 100 µM	> 100 µM	–	–	> 100 µM
C=CCOC(OCC=C)/C(Br)=C/C	37 µM	> 100 µM	72.2 µM	> 100 µM	> 100 µM	> 100 µM	> 100 µM	–	> 100 µM	> 100 µM	> 100 µM	–	> 100 µM	89.2 µM	> 100 µM
COc1c(Br)cc2ccccc2c1-c1c(OC)c(Br)cc2ccccc12	> 100 µM	> 100 µM	> 100 µM	> 100 µM	> 100 µM	> 100 µM	> 100 µM	> 100 µM	> 100 µM	> 100 µM	> 100 µM	–	> 100 µM	> 100 µM	> 100 µM
